# System: S. sanguis
# Assay: Ammonia production by S. sanguis at pH 4.0
# Assay type: cell-based
# Details: mean of 6 trials; 5 millimolar amino acid, pH 4.0, 0.1% sucrose, 37° C., 30 minutes
# Protocol: An overnight culture of S. sanguis was grown at 37° C. in trypticase soy broth (Becton Dickinson, Sparks, Md.). The culture was centrifuged at 5,000 rpm for 5 minutes at 1 milliliter at a time into preweighed tubes in order to accumulate approximately 5 milligrams of wet pellet weight. The pellet was then resuspended into 20 millimolar potassium phosphate buffer (JT Baker, Phillipsburg, N.J.), pH 4.0, to simulate a stressed environment for the bacterial cell where ammonia would be produced for survival. The final concentration was 5 milligram per milliliter. To this final concentration, a 5 millimolar final concentration of L-arginine, L-citrulline, or L-ornithine was added along with a 0.1% final concentration of sucrose (VWR, West Chester, Pa.). This mixture was then incubated at 37° C. in a shaking water bath for 30 minutes before ammonia production was determined.
# In order to analyze for ammonia, an Ammonia Assay kit was used from Diagnostic Chemicals Limited (Oxford, Conn.). The intended use of this specific kit is for the in vitro quantification of ammonia in plasma, but the procedure was modified in order to determine and quantify the ammonia production in plaque and/or bacteria.
smiles,measurement,value
"N=C(N)NCCC[C@H](N)C(=O)O [L-Arginine, L-arginine]","Ammonia, Mean",1.06 ppm
"NC(=O)NCCC[C@H](N)C(=O)O [L-Citrulline, L-citrulline]","Ammonia, Mean",0.951 ppm

# Reference: US11612553B2, “Oral care product and methods of use and manufacture thereof” (Colgate-Palmolive Company, priority 2008, dated 2023)
